Experiments:
Type in all cases: biochemical
HIPK1(h) = biological target: T1, HIPK1(h) (Homo sapiens, UniProt Q86Z02); assay: HIPK1 KinaseProfiler radiometric protein kinase assay; settings: 45 μM ATP, 40 minutes at room temperature
T1 construct: purchased Merck Millipore (KinaseProfiler service)
Protocol: (§1) In vitro essays were performed by the company Merck Millipore in their KinaseProfiler radiometric protein kinase assay as paid commercial service. The compounds IC50 values for inhibition of individual protein kinases were determined. Dose-response curves were plotted from inhibition data generated, each in duplicate, from 10 point serial dilutions of inhibitory compounds. Concentration of compound was plotted against % kinase activity. To generate IC50 values, the dose-response curves were fitted to a standard sigmoidal curve and IC50 values were derived by standard nonlinear regression analysis.
(§2) All tested compounds were prepared in 100% DMSO to final assay concentrations either 0.5 mM (for the concentration row A, see below) or 0.05 mM (for the concentration row B). This working stock of the compound was added to the assay well as the first component in the reaction, followed by the remaining components as detailed below. The stock solution was added to the individual assay wells in such amounts that the concentrations of the compound were either in the row A (0.001 μM, 0.003 μM, 0.01 μM, 0.03 μM, 0.1 μM, 0.3 μM, 1.0 μM, 3.0 μM, and 10.0 μM) or in the row B (0.0001 μM, 0.0003 μM, 0.001 μM, 0.003 μM, 0.01 μM, 0.03 μM, 0.1 μM, 0.3 μM, and 1.0 μM). There was no pre-incubation step between the compound and the kinase prior to initiation of the reaction.
(§3) The positive control wells contained all components of the reaction, except the compound of interest; however, DMSO (at a final concentration of 2%) was included in these wells to control for solvent effects. The blank wells contained all components of the reaction, with staurosporine as a reference inhibitor replacing the compound of interest. This abolished kinase activity and established the base-line (0% kinase activity remaining).
HIPK1(h) was diluted in the buffer (20 mM MOPS, 1 mM EDTA, 0.01% Brij-35, 5% Glycerol, 0.1% β-mercaptoethanol, 1 mg/mL BSAs) to the concentration of 1.01 mg/mL prior to addition to the reaction mix.
(§4) The above stock solution of HIPK1(h) was added to a mixture containing 8 mM MOPS pH 7.0, 0.2 mM EDTA, and 0.33 mg/mL myelin basic protein in such amount that the resulting concentration of HIPK1(h) was 4.7 nM. This mixture was added to the stock solution of the tested compound. The reaction was initiated by the addition of the MgATP mix in such amount that the resulting concentration of Mg acetate in the reaction mixture was 10 mM and [γ-^33P-ATP] (specific activity approx. 500 cpm/pmol) was 45 μM. After incubation for 40 minutes at room temperature, the reaction was stopped by the addition of 3% phosphoric acid solution. 10 μL of the reaction was then spotted onto a P30 filtermat and washed three times for 5 minutes in 75 mM phosphoric acid and once in methanol prior to drying and scintillation counting.

HIPK3(h) = biological target: T2, HIPK3(h) (Homo sapiens, UniProt Q9H422); assay: HIPK3 KinaseProfiler radiometric protein kinase assay; settings: 15 μM ATP, 40 minutes at room temperature
T2 construct: purchased Merck Millipore (KinaseProfiler service)
T2 sequence (Q9H422 whole entry): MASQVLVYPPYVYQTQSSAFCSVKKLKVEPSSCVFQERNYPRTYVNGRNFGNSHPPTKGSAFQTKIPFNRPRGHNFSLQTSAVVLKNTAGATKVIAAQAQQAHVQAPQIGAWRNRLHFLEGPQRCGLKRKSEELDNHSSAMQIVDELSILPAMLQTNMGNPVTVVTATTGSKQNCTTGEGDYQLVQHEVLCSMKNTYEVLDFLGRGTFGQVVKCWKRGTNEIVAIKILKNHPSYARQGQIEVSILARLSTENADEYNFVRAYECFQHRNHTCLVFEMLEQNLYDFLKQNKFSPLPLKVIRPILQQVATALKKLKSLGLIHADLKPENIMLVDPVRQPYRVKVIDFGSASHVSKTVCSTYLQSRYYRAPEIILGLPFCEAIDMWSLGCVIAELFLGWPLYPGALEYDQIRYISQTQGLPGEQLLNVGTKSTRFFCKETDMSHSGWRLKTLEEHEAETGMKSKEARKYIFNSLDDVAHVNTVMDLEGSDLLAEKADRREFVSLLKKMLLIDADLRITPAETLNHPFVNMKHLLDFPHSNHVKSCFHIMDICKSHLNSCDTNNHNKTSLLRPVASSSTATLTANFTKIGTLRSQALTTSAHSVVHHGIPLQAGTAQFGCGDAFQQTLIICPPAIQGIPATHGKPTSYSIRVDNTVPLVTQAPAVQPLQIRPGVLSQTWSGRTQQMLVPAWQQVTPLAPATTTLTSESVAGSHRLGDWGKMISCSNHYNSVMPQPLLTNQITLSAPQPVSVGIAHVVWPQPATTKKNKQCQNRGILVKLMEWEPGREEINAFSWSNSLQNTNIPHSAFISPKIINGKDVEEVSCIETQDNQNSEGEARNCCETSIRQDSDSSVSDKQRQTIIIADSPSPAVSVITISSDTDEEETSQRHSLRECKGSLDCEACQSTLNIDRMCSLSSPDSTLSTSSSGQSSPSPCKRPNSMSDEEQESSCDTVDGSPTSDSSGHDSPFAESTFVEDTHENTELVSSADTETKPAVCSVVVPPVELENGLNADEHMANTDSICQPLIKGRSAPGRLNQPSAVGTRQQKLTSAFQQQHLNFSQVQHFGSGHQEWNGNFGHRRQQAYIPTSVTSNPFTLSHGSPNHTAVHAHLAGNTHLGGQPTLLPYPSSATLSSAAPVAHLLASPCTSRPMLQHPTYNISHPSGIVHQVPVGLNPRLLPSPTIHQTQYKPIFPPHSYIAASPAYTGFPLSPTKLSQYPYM
Protocol: as §1, §2, §3
HIPK3(h) was diluted in the buffer (20 mM MOPS, 1 mM EDTA, 0.01% Brij-35, 5% Glycerol, 0.1% β-mercaptoethanol, 1 mg/mL BSAs) to the concentration of 1.01 mg/mL prior to addition to the reaction mix.
as §4, with “HIPK3(h)” for “HIPK1(h)”, “1.0” for “0.33”, “6.4” for “4.7”, “15” for “45”, “10 μL of the reaction was then spotted onto a P30 filtermat and washed three times for 5 minutes in 75 mM phosphoric acid and once in methanol prior to drying and scintillation counting.” left out

HIPK2(h) = biological target: T3, HIPK2(h) (Homo sapiens, UniProt Q9H2X6); assay: HIPK2 KinaseProfiler radiometric protein kinase assay; settings: 10 μM ATP, 40 minutes at room temperature
T3 construct: purchased Merck Millipore (KinaseProfiler service)
T3 sequence (Q9H2X6 whole entry): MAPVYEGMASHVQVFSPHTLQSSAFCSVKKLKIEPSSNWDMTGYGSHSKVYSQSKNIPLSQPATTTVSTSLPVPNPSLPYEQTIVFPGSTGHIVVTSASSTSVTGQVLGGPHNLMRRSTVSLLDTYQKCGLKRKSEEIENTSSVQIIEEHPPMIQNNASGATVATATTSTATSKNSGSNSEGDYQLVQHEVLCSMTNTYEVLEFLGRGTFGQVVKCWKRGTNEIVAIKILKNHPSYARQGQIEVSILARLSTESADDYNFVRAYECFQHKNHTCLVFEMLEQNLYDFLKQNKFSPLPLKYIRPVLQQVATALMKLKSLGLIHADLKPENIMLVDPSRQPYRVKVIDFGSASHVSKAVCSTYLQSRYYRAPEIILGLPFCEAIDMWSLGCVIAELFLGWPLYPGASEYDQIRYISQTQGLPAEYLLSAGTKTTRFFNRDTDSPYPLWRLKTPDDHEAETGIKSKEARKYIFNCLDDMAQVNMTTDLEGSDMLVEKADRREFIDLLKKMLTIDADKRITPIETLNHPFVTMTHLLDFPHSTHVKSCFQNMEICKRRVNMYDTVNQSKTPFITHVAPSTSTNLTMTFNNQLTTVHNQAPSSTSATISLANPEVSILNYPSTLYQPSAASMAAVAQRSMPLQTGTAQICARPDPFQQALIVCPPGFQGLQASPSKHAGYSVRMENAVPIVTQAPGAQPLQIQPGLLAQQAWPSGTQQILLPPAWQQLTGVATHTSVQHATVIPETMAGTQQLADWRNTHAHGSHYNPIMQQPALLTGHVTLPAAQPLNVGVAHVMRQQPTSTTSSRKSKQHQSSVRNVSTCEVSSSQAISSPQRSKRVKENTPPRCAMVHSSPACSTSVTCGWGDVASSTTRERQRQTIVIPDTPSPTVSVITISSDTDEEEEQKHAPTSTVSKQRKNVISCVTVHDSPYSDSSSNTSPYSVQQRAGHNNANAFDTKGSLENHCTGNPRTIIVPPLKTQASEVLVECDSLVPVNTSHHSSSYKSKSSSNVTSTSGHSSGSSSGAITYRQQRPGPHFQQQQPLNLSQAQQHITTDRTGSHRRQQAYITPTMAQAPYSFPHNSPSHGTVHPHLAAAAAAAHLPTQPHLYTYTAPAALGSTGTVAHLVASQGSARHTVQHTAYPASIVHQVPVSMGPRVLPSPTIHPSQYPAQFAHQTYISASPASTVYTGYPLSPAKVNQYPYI
Protocol: as §1, §2, §3
HIPK2(h) was diluted in the buffer (20 mM MOPS, 1 mM EDTA, 0.01% Brij-35, 5% Glycerol, 0.1% β-mercaptoethanol, 1 mg/mL BSAs) to the concentration of 1.01 mg/mL prior to addition to the reaction mix.
as §4, with “HIPK2(h)” for “HIPK1(h)”, “1.4” for “4.7”, “10” for “45”

CLK4 (h) = biological target: T4, CLK4 (h) (Homo sapiens, UniProt Q9HAZ1); assay: CLK4 KinaseProfiler radiometric protein kinase assay; settings: 15 μM ATP, 40 minutes at room temperature
T4 construct: purchased Merck Millipore (KinaseProfiler service)
T4 sequence (Q9HAZ1 whole entry): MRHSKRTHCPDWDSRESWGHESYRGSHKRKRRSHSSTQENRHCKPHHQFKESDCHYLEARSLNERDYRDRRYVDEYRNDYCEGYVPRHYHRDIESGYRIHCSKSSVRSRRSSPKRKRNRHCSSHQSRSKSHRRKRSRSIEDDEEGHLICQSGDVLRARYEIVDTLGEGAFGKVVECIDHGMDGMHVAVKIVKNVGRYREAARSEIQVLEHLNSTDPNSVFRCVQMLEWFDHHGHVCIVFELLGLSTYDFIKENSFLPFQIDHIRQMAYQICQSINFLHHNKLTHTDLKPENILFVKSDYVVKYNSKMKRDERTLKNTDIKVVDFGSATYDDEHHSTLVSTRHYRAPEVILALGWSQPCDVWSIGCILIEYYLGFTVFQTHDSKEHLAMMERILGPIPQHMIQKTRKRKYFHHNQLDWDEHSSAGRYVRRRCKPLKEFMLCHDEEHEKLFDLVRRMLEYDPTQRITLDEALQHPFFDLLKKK
Protocol: as §1, §2, §3
CLK4 (h) was diluted in the buffer (20 mM MOPS, 1 mM EDTA, 0.01% Brij-35, 5% Glycerol, 0.1% β-mercaptoethanol, 1 mg/mL BSAs) to the concentration of 1.01 mg/mL prior to addition to the reaction mix.
as §4, with “CLK4(h)” for “HIPK1(h)”, “200 μM […](p) EDEEE” for “0.33 mg/mL myelin basic protein”, “140.8” for “4.7”, “15” for “45”

CLK2 (h) = biological target: T5, CLK2 (h) (Homo sapiens, UniProt P49760); assay: CLK2 KinaseProfiler radiometric protein kinase assay; settings: radiometric, 15 μM ATP, 40 minutes at room temperature; read-out: CLK2 IC50
T5 construct: purchased Merck Millipore (KinaseProfiler service)
T5 sequence (P49760 whole entry): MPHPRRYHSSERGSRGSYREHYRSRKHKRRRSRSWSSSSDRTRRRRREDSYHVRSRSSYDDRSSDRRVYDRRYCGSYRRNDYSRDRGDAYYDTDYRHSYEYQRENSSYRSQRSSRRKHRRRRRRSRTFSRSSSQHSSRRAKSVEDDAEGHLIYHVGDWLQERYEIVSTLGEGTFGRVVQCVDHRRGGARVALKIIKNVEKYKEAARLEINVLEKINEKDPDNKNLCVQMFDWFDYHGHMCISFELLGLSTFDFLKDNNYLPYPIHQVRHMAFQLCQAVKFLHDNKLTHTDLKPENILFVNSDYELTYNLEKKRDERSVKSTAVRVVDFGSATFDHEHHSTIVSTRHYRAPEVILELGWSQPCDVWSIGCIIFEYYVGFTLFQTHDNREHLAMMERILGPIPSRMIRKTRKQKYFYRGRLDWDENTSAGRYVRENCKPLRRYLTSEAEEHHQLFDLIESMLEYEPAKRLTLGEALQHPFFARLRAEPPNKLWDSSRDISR
Protocol: as §1, §2, §3
CLK2 (h) was diluted in the buffer (20 mM MOPS (3-(N-morpholino)propanesulfonic acid), 1 mM EDTA (ethylendiaminotetraacetic acid), 0.01% Brij-35 (detergent), 5% Glycerol, 0.1% β-mercaptoethanol, 1 mg/mL BSAs) to the concentration of 1.01 mg/mL prior to addition to the reaction mix.
as §4, with “CLK2(h)” for “HIPK1(h)”, “20 μM […](p) EDEEE” for “0.33 mg/mL myelin basic protein”, “2.1” for “4.7”, “15” for “45”

TRKA(h) = biological target: T6, TRKA(h) (Homo sapiens, UniProt P04629); assay: TRKA KinaseProfiler radiometric protein kinase assay; settings: 120 μM ATP, 40 minutes at room temperature
T6 construct: purchased Merck Millipore (KinaseProfiler service)
T6 sequence (P04629 33-796): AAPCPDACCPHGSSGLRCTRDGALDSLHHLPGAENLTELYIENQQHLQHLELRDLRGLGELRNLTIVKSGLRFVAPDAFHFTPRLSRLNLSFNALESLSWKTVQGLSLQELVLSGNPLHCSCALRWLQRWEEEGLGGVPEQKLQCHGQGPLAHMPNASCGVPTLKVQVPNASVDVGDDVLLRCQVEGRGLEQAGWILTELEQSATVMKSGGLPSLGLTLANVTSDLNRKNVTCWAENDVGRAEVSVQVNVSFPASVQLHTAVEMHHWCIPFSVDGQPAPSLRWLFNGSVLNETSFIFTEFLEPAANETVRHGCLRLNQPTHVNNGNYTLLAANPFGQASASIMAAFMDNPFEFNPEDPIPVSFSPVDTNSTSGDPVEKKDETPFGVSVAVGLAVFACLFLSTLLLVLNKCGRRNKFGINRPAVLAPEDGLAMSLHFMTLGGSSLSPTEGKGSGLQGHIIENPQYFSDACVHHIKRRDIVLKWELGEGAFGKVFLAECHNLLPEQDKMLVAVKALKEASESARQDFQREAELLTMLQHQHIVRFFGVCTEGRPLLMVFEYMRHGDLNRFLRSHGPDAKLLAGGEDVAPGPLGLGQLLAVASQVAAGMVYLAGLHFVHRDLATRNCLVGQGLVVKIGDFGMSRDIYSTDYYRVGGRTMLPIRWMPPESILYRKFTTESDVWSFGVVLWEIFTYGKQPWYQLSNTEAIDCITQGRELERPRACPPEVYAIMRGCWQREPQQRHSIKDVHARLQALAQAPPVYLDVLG
Protocol: as §1, §2, §3
TRKA(h) was diluted in the buffer (20 mM MOPS, 1 mM EDTA, 0.01% Brij-35, 5% Glycerol, 0.1% β-mercaptoethanol, 1 mg/mL BSAs) to the concentration of 1.01 mg/mL prior to addition to the reaction mix.
as §4, with “TRKA(h)” for “HIPK1(h)”, “250 μM KKKSPGEYVNIEFG,” for “0.33 mg/mL myelin basic protein”, “28.2” for “4.7”, “120” for “45”, “10 μL of the reaction was then spotted onto a P30 filtermat and washed three times for 5 minutes in 75 mM phosphoric acid and once in methanol prior to drying and scintillation counting.” left out

FLT3(h) = biological target: T7, FLT3(h) (Homo sapiens, UniProt P36888); assay: FLT3 KinaseProfiler radiometric protein kinase assay; settings: 200 μM ATP, 40 minutes at room temperature
T7 construct: purchased Merck Millipore (KinaseProfiler service)
T7 sequence (P36888 27-993): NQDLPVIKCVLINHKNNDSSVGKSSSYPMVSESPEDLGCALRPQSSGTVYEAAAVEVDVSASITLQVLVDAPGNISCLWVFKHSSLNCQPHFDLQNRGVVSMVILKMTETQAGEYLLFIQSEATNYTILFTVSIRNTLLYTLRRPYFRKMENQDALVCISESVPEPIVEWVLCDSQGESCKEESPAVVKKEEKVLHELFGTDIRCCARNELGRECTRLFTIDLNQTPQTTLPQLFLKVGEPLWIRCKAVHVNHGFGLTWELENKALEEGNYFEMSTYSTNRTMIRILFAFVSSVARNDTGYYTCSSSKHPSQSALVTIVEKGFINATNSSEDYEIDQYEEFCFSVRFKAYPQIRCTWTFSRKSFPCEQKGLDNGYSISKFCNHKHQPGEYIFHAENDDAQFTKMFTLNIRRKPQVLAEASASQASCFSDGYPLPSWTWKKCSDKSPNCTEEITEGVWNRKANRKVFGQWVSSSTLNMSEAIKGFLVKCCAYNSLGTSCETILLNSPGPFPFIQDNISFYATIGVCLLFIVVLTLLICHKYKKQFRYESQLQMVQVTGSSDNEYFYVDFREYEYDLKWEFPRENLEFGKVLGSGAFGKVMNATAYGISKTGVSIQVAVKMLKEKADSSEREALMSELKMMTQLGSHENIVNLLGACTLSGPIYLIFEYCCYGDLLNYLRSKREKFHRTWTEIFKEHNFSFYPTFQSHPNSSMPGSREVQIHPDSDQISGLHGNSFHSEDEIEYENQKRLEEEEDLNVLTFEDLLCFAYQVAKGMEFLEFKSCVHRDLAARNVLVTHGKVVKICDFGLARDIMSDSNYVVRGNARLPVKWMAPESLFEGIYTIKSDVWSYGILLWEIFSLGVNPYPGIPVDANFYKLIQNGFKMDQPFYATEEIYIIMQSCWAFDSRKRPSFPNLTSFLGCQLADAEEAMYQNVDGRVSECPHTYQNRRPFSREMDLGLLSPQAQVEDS
Protocol: as §1, §2, §3
FLT3(h) was diluted in the buffer (20 mM MOPS, 1 mM EDTA, 0.01% Brij-35, 5% Glycerol, 0.1% β-mercaptoethanol, 1 mg/mL BSAs) to the concentration of 1.01 mg/mL prior to addition to the reaction mix.
as §4, with “solution of Flt3(h) was added” for “solution of HIPK1(h) was added”, “EDTA, and 50 μM EAIYAAPFAKKK, in such” for “EDTA, and 0.33 mg/mL myelin basic protein in such”, “concentration of FLT3(h) was 28.3” for “concentration of HIPK1(h) was 4.7”, “FLT3(h) was 28.3 nM. This” for “HIPK1(h) was 4.7 nM. This”, “cpm/pmol) was 200 μM. After” for “cpm/pmol) was 45 μM. After”

SMILES | IC50 (HIPK1(h)) | IC50 (HIPK3(h)) | IC50 (HIPK2(h)) | IC50 (CLK4 (h)) | IC50 (CLK2 (h)) | IC50 (TRKA(h)) | IC50 (FLT3(h))
Cc1n[nH]c(C)c1-c1ccc2occ(-c3ccc4ccccc4c3)c2n1 [Preparative Example 7D] | < 5000 nM | < 5000 nM | < 1000 nM | < 5 µM | < 5000 nM | – | –
Cc1cc(Nc2cc(-c3ccccc3)nc3ccoc23)sn1 [Preparative Example 17E] | – | – | – | – | – | < 5 µM | < 5 µM
c1ccc(-c2coc3ccc(Nc4ccc(N5CCOCC5)cc4)nc23)cc1 [Preparative Example 8B] | – | – | – | – | < 1000 nM | < 5 µM | < 1 µM
CN1CCN(c2ccc(Nc3ccc4occ(-c5ccccc5)c4n3)cc2)CC1 [Preparative Example 8C] | – | – | – | < 5 µM | – | < 5 µM | < 5 µM
Cn1cc(-c2ccc3occ(-c4ccc5ccccc5c4)c3n2)cn1 [Preparative Example 7A] | < 1000 nM | < 1000 nM | < 1000 nM | < 0.1 µM | < 100 nM | – | –
c1ccc(Nc2ccc3occ(-c4ccccc4)c3n2)cc1 [Preparative Example 8E] | – | – | – | < 5 µM | – | < 5 µM | < 5 µM
c1ccc(-c2coc3ccc(Nc4ccncc4)nc23)cc1 [Preparative Example 8D] | – | – | – | – | – | – | < 5 µM
